From patent US7645864B2, “Erythromycin derivative having novel crystal structures and processes for their production” (Chugai Seiyaku Kabushiki Kaisha, priority 2001, dated 2010)

Assay: not given
Settings: reported in JP 9-100291 A; cited from earlier work
In the case of CC[C@H]1OC(=O)[C@H](C)[C@@H](O[C@H]2C[C@@](C)(OC)[C@@H](O)[C@H](C)O2)[C@H](C)[C@@H](O[C@@H]2O[C@H](C)C[C@H](N(C)C(C)C)[C@H]2O)[C@]2(C)CC(C)=C(O2)[C@H](C)C(=O)[C@]1(C)OC [D-type crystal], the “Stability compared with the A-type and C-type crystals” value is given as “superior in stability”.

Assay: Average particle size by particle size distribution analyzer
Type: physicochemical
Settings: D-form crystal
From the text: The content of residual solvent may be determined in a known manner, for example, by gas chromatography. The details on gas chromatography can be found in the Japanese Pharmacopoeia, 13th Edition, published by Hirokawa Publishing Co. (1996) pp. B83-B94, the Japanese Pharmacopoeia, 14th Edition, published by Hirokawa Publishing Co. (2001) pp. B98-B114 and elsewhere. In general, gas chromatography will cause a measurement error falling within around ±1%. The compound of the present invention can also be determined for its average particle size in a known manner or using various devices that are commercially available, such as a dry particle size distribution analyzer. In general, such a particle size distribution analyzer will cause a measurement error falling within around ±5%.
In these examples and comparison examples, X-ray diffractometry was performed using a powder X-ray diffractometer RINT-1100 (Rigaku), the content of residual solvent was determined using a gas chromatograph GC-17A (Shimadzu Corp.), and the average particle size was determined using a particle size distribution analyzer RPS-95 (Seishin Enterprise Co., Ltd.).
For CC[C@H]1OC(=O)[C@H](C)[C@@H](O[C@H]2C[C@@](C)(OC)[C@@H](O)[C@H](C)O2)[C@H](C)[C@@H](O[C@@H]2O[C@H](C)C[C@H](N(C)C(C)C)[C@H]2O)[C@]2(C)CC(C)=C(O2)[C@H](C)C(=O)[C@]1(C)OC [Comparison Example 1, reference compound], the “Particle size (average particle size)” value was 82 μm.
With CC[C@H]1OC(=O)[C@H](C)[C@@H](O[C@H]2C[C@@](C)(OC)[C@@H](O)[C@H](C)O2)[C@H](C)[C@@H](O[C@@H]2O[C@H](C)C[C@H](N(C)C(C)C)[C@H]2O)[C@]2(C)CC(C)=C(O2)[C@H](C)C(=O)[C@]1(C)OC [Comparison Example 2, reference compound] the “Particle size (average particle size)” value was 61 μm.
For CC[C@H]1OC(=O)[C@H](C)[C@@H](O[C@H]2C[C@@](C)(OC)[C@@H](O)[C@H](C)O2)[C@H](C)[C@@H](O[C@@H]2O[C@H](C)C[C@H](N(C)C(C)C)[C@H]2O)[C@]2(C)CC(C)=C(O2)[C@H](C)C(=O)[C@]1(C)OC [Example 2], the “Particle size (average particle size)” value was 302 μm.
In the case of CC[C@H]1OC(=O)[C@H](C)[C@@H](O[C@H]2C[C@@](C)(OC)[C@@H](O)[C@H](C)O2)[C@H](C)[C@@H](O[C@@H]2O[C@H](C)C[C@H](N(C)C(C)C)[C@H]2O)[C@]2(C)CC(C)=C(O2)[C@H](C)C(=O)[C@]1(C)OC [Example 3], the “Particle size (average particle size)” value is reported as 197 μm.
In the case of CC[C@H]1OC(=O)[C@H](C)[C@@H](O[C@H]2C[C@@](C)(OC)[C@@H](O)[C@H](C)O2)[C@H](C)[C@@H](O[C@@H]2O[C@H](C)C[C@H](N(C)C(C)C)[C@H]2O)[C@]2(C)CC(C)=C(O2)[C@H](C)C(=O)[C@]1(C)OC [Example 7], the “Particle size (average particle size)” value is reported as 163 μm.
In the case of CC[C@H]1OC(=O)[C@H](C)[C@@H](O[C@H]2C[C@@](C)(OC)[C@@H](O)[C@H](C)O2)[C@H](C)[C@@H](O[C@@H]2O[C@H](C)C[C@H](N(C)C(C)C)[C@H]2O)[C@]2(C)CC(C)=C(O2)[C@H](C)C(=O)[C@]1(C)OC [Example 8], the “Particle size (average particle size)” value is reported as 185 μm.
